From ChEMBL document CHEMBL2057116, “A novel tetrahydrobenzoangelicin with dark and photo biological activity” (Bioorg Med Chem, 2012)
Calls of active or inactive are those of the source. The calls are words filed in the database; no cut-off is given here.

Assays:
HeLa [1] = assay: Antiproliferative activity against human HeLa cells after 24 hrs by trypan blue dye assay; type: functional, cell-based
A-431 [2] = assay: Antiproliferative activity against human A431 cells incubated for 1 hr with inhibitor followed by UV irradiation measured after 24 hrs by trypan blue dye assay; type: functional, cell-based; details: A-431, light or radiation study
A-431 [3] = assay: Antiproliferative activity against human A431 cells after 24 hrs by trypan blue dye assay; type: functional, cell-based; details: A-431, 24 h
HeLa [4] = assay: Antiproliferative activity against human HeLa cells incubated for 1 hr with inhibitor followed by UV irradiation measured after 24 hrs by trypan blue dye assay; type: functional, cell-based; details: light or radiation study
HeLa [5] = assay: Ratio of IC50 for 8-MOP to compound IC50 for human HeLa cells incubated for 1 hr with inhibitor followed by UV irradiation measured after 24 hrs by trypan blue dye assay; type: functional
A-431 [6] = assay: Ratio of IC50 for 8-MOP to compound IC50 for human A431 cells incubated for 1 hr with inhibitor followed by UV irradiation measured after 24 hrs by trypan blue dye assay; type: functional
Nucleic Acid [7] = assay: Binding affinity to salmon testes DNA assessed as change in linear dichroism at compound to DNA ratio of 0.02 to 0.08 by circular dichroism analysis; type: nucleic-acid assay; details: Salmonidae
[8] = biological target: DNA topoisomerase 2-alpha (Homo sapiens) (UniProt P11388); assay: Inhibition of human recombinant topoisomerase 2alpha-mediated pBR322 DNA relaxation after 60 mins by agarose gel electrophoretic analysis
[9] = biological target: DNA topoisomerase 2-alpha (Homo sapiens) (UniProt P11388); assay: Inhibition of human recombinant topoisomerase 2alpha-mediated pBR322 DNA relaxation at 5 uM after 60 mins by agarose gel electrophoretic analysis
[10] = biological target: DNA topoisomerase 2-alpha (Homo sapiens) (UniProt P11388); assay: Inhibition of human recombinant topoisomerase 2alpha-mediated pBR322 DNA relaxation at 10 uM after 60 mins by agarose gel electrophoretic analysis
[11] = biological target: DNA topoisomerase 2-alpha (Homo sapiens) (UniProt P11388); assay: Inhibition of human recombinant topoisomerase 2alpha-mediated pBR322 DNA complex formation at 10 uM after 60 mins by agarose gel electrophoresis
Nucleic Acid [12] = assay: Photoaddition to salmon testes DNA assessed as thymine-photoadduct formation by UV-Vis spectrophotometric analysis; type: nucleic-acid assay; details: Salmonidae
[13] = biological target: DNA topoisomerase 2-alpha (Homo sapiens) (UniProt P11388); assay: Inhibition of human recombinant topoisomerase 2alpha-mediated pBR322 DNA relaxation at 8 uM after 60 mins by agarose gel electrophoretic analysis
[14] = biological target: DNA topoisomerase 2-alpha (Homo sapiens) (UniProt P11388); assay: Inhibition of human recombinant topoisomerase 2alpha-mediated pBR322 DNA complex formation at 8 uM after 60 mins by agarose gel electrophoresis

Sequence of DNA topoisomerase 2-alpha (Homo sapiens) (P11388 whole entry): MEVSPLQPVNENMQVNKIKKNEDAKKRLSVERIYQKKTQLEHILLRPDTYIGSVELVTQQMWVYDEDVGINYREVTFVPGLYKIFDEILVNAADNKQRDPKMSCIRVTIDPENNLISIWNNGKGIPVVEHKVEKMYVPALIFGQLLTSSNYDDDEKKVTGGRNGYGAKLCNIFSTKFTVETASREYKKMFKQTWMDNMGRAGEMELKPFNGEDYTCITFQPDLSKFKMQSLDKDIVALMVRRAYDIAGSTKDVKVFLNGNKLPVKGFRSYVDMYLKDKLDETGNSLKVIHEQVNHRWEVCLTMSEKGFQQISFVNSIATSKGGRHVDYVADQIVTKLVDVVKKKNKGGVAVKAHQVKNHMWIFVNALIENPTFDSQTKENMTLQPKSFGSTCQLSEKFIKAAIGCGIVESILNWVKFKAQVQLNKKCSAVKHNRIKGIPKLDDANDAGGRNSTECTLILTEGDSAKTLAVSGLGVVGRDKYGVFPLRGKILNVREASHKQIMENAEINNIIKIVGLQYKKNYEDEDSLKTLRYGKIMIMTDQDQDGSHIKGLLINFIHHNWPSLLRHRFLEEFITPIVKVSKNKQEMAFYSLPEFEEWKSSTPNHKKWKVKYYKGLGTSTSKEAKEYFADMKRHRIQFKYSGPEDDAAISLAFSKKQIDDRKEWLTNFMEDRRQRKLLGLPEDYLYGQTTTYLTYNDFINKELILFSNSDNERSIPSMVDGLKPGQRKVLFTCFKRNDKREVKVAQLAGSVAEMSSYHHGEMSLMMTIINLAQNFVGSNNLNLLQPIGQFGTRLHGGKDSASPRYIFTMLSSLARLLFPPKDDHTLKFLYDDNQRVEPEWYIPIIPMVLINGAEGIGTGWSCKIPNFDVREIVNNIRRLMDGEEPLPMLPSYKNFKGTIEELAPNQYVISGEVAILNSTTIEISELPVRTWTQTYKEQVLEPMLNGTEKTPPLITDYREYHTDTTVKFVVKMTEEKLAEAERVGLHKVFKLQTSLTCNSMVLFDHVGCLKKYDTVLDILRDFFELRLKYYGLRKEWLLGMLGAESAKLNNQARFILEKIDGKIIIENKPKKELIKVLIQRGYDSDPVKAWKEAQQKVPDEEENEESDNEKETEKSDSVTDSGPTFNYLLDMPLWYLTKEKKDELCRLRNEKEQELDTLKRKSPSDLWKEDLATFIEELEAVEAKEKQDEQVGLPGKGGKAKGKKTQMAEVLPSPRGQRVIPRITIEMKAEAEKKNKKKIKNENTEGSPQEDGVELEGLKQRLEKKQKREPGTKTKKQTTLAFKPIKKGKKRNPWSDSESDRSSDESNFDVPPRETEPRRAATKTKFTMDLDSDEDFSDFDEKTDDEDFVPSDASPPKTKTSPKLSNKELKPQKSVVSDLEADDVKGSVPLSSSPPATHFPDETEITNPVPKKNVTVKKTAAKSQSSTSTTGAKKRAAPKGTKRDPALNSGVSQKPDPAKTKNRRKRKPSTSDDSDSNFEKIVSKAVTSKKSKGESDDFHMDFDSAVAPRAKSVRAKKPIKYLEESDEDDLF

Row | IC50 (HeLa [1]) [µM] | IC50 (A-431 [2]) [µM] | IC50 (A-431 [3]) [µM] | IC50 (HeLa [4]) [µM] | Activity (Nucleic Acid [7]) | inhibition [8] | inhibition [9] | inhibition [10] | inhibition [11] | Activity (Nucleic Acid [12]) | inhibition [13] | inhibition [14] | SMILES | Ratio IC50 (HeLa [5]) | Ratio IC50 (A-431 [6])
1 | > 30 | 25 | > 30 | – | – | – | – | – | – | – | – | – | COc1c2occc2cc2ccc(=O)oc12 [METHOXSALEN] | – | –
2 | > 20 | 4.2 | > 20 | 1.4 | – | – | – | – | – | – | – | – | Cc1cc(=O)oc2c1c(OCCCN(C)C)cc1oc3ccccc3c12 | 5.9 | 5.9
3 | 7.2 | 2 | 6.7 | 0.4 | Active | Dose-dependent effect | Active | Active | inactive | Active | – | – | Cc1cc(=O)oc2c1c(OCCCN(C)C)cc1oc3c(c12)CCCC3 | 5.9 | 5.9
4 | – | – | – | – | – | – | – | – | – | – | Active | Active | COc1cc(NS(C)(=O)=O)ccc1Nc1c2ccccc2nc2ccccc12 | – | –
